Reference: patent EP3388430A1, “COMPOUND, COMPOUND FOR USE IN THE TREATMENT OF A PATHOLOGICAL CONDITION, A PHARMACEUTICAL COMPOSITION AND A METHOD FOR PREPARING SAID COMPOUND” (Technische Universität München, priority 2017, dated 2018)

Key:
[1] = molecular target: T1, EphA2 (Homo sapiens, UniProt P29317); assay: Chemical proteomic affinity matrix competition binding in cell lysate (Kd app, CATDS); conditions: CATDS (EphA2) at the concentration corresponding to the Kd app for EphA2; compared with dasatinib
T1 construct: enrichment of ATP-pocket containing proteins (mainly kinases) from complex native cell lysates; endogenous in cells; host or cells: native cell lysate
T1 sequence (P29317 24-976): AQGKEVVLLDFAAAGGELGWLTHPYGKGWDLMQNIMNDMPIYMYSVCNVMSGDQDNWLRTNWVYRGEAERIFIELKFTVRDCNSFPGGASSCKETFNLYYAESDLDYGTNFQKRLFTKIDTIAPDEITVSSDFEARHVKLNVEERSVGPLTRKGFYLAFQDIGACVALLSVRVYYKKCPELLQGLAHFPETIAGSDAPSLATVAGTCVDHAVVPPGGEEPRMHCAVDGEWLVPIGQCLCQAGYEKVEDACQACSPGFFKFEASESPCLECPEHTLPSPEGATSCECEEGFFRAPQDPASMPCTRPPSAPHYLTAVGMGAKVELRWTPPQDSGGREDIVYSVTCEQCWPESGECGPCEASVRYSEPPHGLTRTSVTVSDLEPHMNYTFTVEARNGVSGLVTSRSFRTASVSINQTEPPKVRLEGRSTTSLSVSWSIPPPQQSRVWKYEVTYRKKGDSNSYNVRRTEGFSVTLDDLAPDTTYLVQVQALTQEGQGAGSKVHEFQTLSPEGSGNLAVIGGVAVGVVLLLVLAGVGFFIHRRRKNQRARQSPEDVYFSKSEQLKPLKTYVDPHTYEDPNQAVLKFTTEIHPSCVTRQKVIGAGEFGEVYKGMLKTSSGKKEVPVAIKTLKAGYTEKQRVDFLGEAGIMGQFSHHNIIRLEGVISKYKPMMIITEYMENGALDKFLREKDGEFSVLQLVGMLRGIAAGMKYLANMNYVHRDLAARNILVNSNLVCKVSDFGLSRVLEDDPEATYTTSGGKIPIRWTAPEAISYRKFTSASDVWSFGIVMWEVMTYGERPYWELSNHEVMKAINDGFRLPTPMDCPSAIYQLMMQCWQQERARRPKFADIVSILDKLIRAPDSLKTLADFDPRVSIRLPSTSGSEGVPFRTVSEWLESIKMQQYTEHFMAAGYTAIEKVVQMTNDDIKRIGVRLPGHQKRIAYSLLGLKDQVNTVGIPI
Excerpt: Several of the compounds according to the invention were further evaluated by a chemical proteomic approach facilitating the identification and quantification of drug-protein interactions. This technology utilizes an affinity matrix comprising five immobilized broad spectrum kinase inhibitors for enrichment of ATP-pocket containing proteins (mainly kinases) from complex native cell lysates as described in Bantscheff et al, Nat Biotechnol., 2007, 25(9):1035-44 and Médard et al, L Proteome Res., 2015, 14(3):1574-86. Coupled to quantitative mass spectrometry readout, this chemical proteomic approach allows for the simultaneous identification and quantification of about 300 native human protein kinases. […]
The compounds according to the invention were tested in nine different concentrations (including a DMSO control) ranging from 3 nM to 30 µM. […] Compound selectivity was determined by calculation of a selectivity score named CATDS (concentration and target dependent selectivity). […] It is calculated by dividing the target binding of the target protein (in this case EphA2) by the sum of all target bindings (including the target protein of interest, in this case EphA2) at a particular concentration (in this case the concentration corresponding to the Kd^app value of a compound for EphA2). […]

[2] = system: SF-268 cells; assay: SF-268 cell viability, resazurin-based assay; conditions: Homo sapiens, SF-268, 72 h; three days of treatment; three biological and three technical replicates, Fig. 8; read-out: cellular potency (EC50), SF-268 cell viability
Procedure: The dependency of viability of SF-268 cells on EphA2 expression was validated by siRNA knockdown experiments. SF-268 cells were treated with four siRNAs targeting EphA2 expression independently and a mixture of the four siRNAs. Experiments were performed in three biological and three technical replicates. Cell death siRNA and scrambled siRNA were used as positive and negative controls. After six days of treatment, cellular viability was determined by a resazurin-based assay system measuring the reduction of resazurin as a function of metabolic activity.
Cellular potency was determined as EC50 value after three days of treatment using the above mentioned resazurin-based assay system in three biological and three technical replicates.

selectivity for EphA2 binding (CATDS) [1]	Compound	EC50 [2] [nM]
improved selectivity	Cc1cccc(Cl)c1NC(=O)c1cnc(Nc2cccc(C(=O)NC3CCNCC3(F)F)c2)s1 (stereo not shown) [Compound 28, N-(2-chloro-6-methylphenyl)-2-((3-((3,3-difluoropiperidin-4-yl)carbamoyl)phenyl)amino)thiazole-5-carboxamide]	–
improved selectivity	Cc1cccc(Cl)c1NC(=O)c1cnc(Nc2cc(N3CCOCC3)cc(N3CCOCC3)c2)s1 [Compound 40, N-(2-chloro-6-methylphenyl)-2-((3,5-dimorpholinophenyl)amino)thiazole-5-carboxamide]	94
–	Cc1cccc(Cl)c1NC(=O)c1cnc(Nc2cc(N3CCOCC3)cc(S(C)(=O)=O)c2)s1 [Compound 41, N-(2-chloro-6-methylphenyl)-2-((3-(methylsulfonyl)-5-morpholinophenyl)amino)thiazole-5-carboxamide]	504
